Measurements as given in patent US5407951A, “Sulphonamidocycloalkane compounds, pharmaceutical compositions containing them, and methods of use thereof” (Boehringer Mannheim GmbH, priority 1988, dated 1995).

Legend:
[1] = test system: Platelet-rich human blood plasma; experiment: In vitro inhibition of platelet aggregation induced by thromboxane mimetic U46619 (Born and Cross, aggregometer); assay type: cell-based; conditions: citrated platelet-rich human plasma, measured for five minutes
Protocol: (a) In vitro Inhibition of Platelet Aggregation.
Platelet-rich human blood plasma was treated with 3.2% citrate at a volume ratio of 1:9 to inhibit clotting. A selective thromboxane mimetic, U46619, which is a stable analog of the prostaglandin endoperoxide PGH2, as described by Coleman et al., Brit. J. Pharmocol. 68,127P (1980) was obtained from Upjohn & Co., Kalamazoo, Mich.
The test protocol was that described by Born and Cross, J. Physiol. 168,178 (1963) with the degree of aggregation measured using a 4-channel aggregometer (Profiler, Bio/Data Co.). The compounds of this invention, Examples 2.1, 4(cis) 4(trans), 6 ad 7 were diluted in saline, at final concentrations of 10^-4 to 10^-9M. Saline was used as a control. Measurements were made for a period of five minutes, After addition of the tromboxane mimetic. From the data obtained, an inhibitory concentration IC50 was calculated using standard methods.

[2] = test system: Male NMRI mice; experiment: In vivo inhibition of induced pulmonary emboli (survival after lethal dose of U46619); conditions: lethal dose U46619 (800-1000 ug/kg) into tail vein four hours later, survival after 24 hours, groups of 5; for Survival Rate of Mouse 1 mg/kg, 4 h in %: 1 mg/kg by gastric route in 1% methyl cellulose; for Survival Rate of Mouse 25 mg/kg, 4 h in %: 25 mg/kg by gastric route in 1% methyl cellulose
Protocol: (b) In vivo Inhibition of Induced Pulmonary Emboli
Male NMRI mice, having a body weight of approximately 25g, were separated into groups of 5. Representative examples of the compounds of this invention listed in part (a) were suspended 1% methyl cellulose and administered to the animals by gastric incubation in amounts providing 1/mg/kg and 25/mg/kg of the antagonist, Four hours after incubation, a previously determined lethal dose of U46619 (800-1000 ug/kg) was injected into the tail vein of each animals. The survival rates for each group of mice was determined after 24 hours. The results are shown in Table 1 and indicate correlation with the IC50 measured in vitro.

SMILES	IC50 [1]	Survival Rate of Mouse 1 mg/kg, 4 h in % [2]	Survival Rate of Mouse 25 mg/kg, 4 h in % [2]
O=C(CO[C@H]1CC[C@@H](CCNS(=O)(=O)c2ccc(Cl)cc2)CC1)Nc1nnn[nH]1 [4 (cis), cis-4-[2-(4-Chlorobenzenesulphonylamino)-ethyl]cyclohexyloxyacetic acid (tetrazol-5-yl)-amide]	4.6 µM	100%	100%
O=C(CO[C@H]1CC[C@H](CCNS(=O)(=O)c2ccc(Cl)cc2)CC1)Nc1nnn[nH]1 [4 (trans), trans-4-[2-(4-chlorobenzenesulphonylamino)-ethyl]-cyclohexyloxy acetic acid (tetrazol-5-yl-amide)]	5.8 µM	60%	100%
O=C(O)C1CCC(CCNS(=O)(=O)c2ccc(Cl)cc2)CC1 (stereo not drawn) [Example 2.1]	2 µM	100%	100%
O=C(CC1CCC(CCNS(=O)(=O)c2ccc(Cl)cc2)CC1)Nc1nnn[nH]1 (stereo not drawn) [Example 6, 4-[2-(4-Chlorobenzenesulphonylamino)-ethyl]-cyclohexylacetic acid (tetrazol-5-yl-amide)]	2.5 µM	100%	100%
O=S(=O)(NCCC1CCC(OCc2nn[nH]n2)CC1)c1ccc(Cl)cc1 (stereo not drawn) [Example 7, 1-[2-(4-Chlorobenzenesulphonylamino)-ethyl]-4-(tetrazol-5-yl-methyleneoxy)-cyclohexane]	0.42 µM	100%	100%
